Assay results taken from patent US20240158385A1, “NOVEL COMPOUNDS” (Cerevance, Inc., priority 2021, published 2024).

These compounds were tested against T1, human KCNK13 (Homo sapiens, UniProt Q9HB14) (assay: KCNK13 antagonist activity, thallium (Tl+) flux FLIPR assay). Conditions: not given.
T1 construct: expressed in transfected cells
T1 sequence (Q9HB14 1-408): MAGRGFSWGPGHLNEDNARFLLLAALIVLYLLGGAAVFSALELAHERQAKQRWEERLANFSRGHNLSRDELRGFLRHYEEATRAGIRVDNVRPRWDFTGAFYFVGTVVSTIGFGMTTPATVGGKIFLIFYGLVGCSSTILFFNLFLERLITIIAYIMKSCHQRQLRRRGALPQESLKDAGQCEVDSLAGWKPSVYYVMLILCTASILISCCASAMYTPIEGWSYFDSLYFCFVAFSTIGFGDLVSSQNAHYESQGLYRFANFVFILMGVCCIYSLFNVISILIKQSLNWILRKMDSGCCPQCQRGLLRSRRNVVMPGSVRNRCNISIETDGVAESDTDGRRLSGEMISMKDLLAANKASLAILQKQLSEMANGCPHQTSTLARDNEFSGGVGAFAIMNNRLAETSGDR
Format: cell-based
Experimental: KCNK13 antagonist activity was determined by measuring changes in intracellular Thallium (Tl^+) concentrations using a Tl^+ sensitive fluorescent dye. The changes in fluorescent signal were monitored by Fluorescent Imaging Plate Reader (FLIPR™) technology available from Molecular Devices, LLC, US. KCNK13 mediated increases in intracellular Tl+concentration were readily detected by addition of a thallium sulfate stimulus. 24 hours prior to the assay, human embryonic kidney 293 cells (HEK 293 cells) stably expressing human KCNK13 were seeded in cell culture medium in PDL coated black, clear-bottom 384-well plates (commercially available from Corning Inc., 356663) and grown overnight at 37° C., 5% CO2. On the day of the assay, cell culture media was removed and cells were loaded with potassium dye (commercially sold by Molecular Devices, LLC, US, R8222) for 1 hour at room temperature in the dark. Test compounds (at 10 point half log concentration response curves from […]) were added to cells for 15 minutes prior to the addition of thallium sulfate to all wells. The IC50 values were determined from ten point concentration response curves. Curves were generated using the average of two wells for each data point.

SMILES	IC50
Nc1nonc1-c1nc2cccnc2n1Cc1cncnc1 [Example 15, 4-[3-(pyrimidin-5-ylmethyl)imidazo[4,5-b]pyridin-2-yl]-1,2,5-oxadiazol-3-amine]	< 200 nM

Same assay, conditions: HEK 293 cells stably expressing human KCNK13; Tl+ sensitive dye, FLIPR; compounds 15 minutes prior to thallium sulfate; 10 point half log curves from 10 PM; read-out: hKCNK13 IC50

SMILES	IC50
COc1ccc(Cn2c(-c3nonc3N)nc3c(F)cccc32)nn1 (single isomer, unassigned) [Example 153, 4-(4-fluoro-1-((6-methoxypyridazin-3-yl)methyl)-benzimidazol-2-yl)-1,2,5-oxadiazol-3-amine]	< 200 nM
Nc1nsnc1-c1nc2cccc(F)c2n1Cc1cccnn1 (single isomer, unassigned) [Example 156, 4-(7-fluoro-1-(pyridazin-3-ylmethyl)-benzimidazol-2-yl)-1,2,5-thiadiazol-3-amine]	< 50 nM
Nc1nsnc1-c1nc2c(F)cccc2n1Cc1cccnn1 (single isomer, unassigned) [Example 157, 4-(4-fluoro-1-(pyridazin-3-ylmethyl)-benzimidazol-2-yl)-1,2,5-thiadiazol-3-amine]	< 200 nM
Nc1nonc1-c1nc2ccc(F)c(F)c2n1Cc1cccnn1 (single isomer, unassigned) [Example 162, 4-(6,7-difluoro-1-(pyridazin-3-ylmethyl)-benzimidazol-2-yl)-1,2,5-oxadiazol-3-amine]	< 50 nM
Cc1nonc1-c1nc2ccc(F)c(F)c2n1Cc1cnc(C#N)nc1 [Example 1, 5-[[6,7-difluoro-2-(4-methyl-1,2,5-oxadiazol-3-yl)benzimidazol-1-yl]methyl]pyrimidine-2-carbonitrile]	< 100 nM
N#Cc1ncc(Cn2c(-c3nonc3N)nc3ccc(F)c(F)c32)cn1 [Example 2, 5-[[2-(4-amino-1,2,5-oxadiazol-3-yl)-6,7-difluoro-benzimidazol-1-yl]methyl]pyrimidine-2-carbonitrile]	< 50 nM
Nc1nonc1-c1nc2cccc(F)c2n1Cc1cncnc1 [Example 3, 4-[7-fluoro-1-(pyrimidin-5-ylmethyl)benzimidazol-2-yl]-1,2,5-oxadiazol-3-amine]	< 50 nM
Nc1nonc1-c1nc2cccc(F)c2n1Cc1cccnn1 [Example 6, 4-[7-fluoro-1-(pyridazin-3-ylmethyl)benzimidazol-2-yl]-1,2,5-oxadiazol-3-amine]	< 100 nM
Cc1nonc1-c1nc2ccc(F)c(F)c2n1Cc1cncnc1 [Example 7, 3-[6,7-difluoro-1-(pyrimidin-5-ylmethyl)benzimidazol-2-yl]-4-methyl-1,2,5-oxadiazole]	< 100 nM
N#Cc1ccc(Cn2c(-c3nonc3N)nc3c(F)cccc32)cn1 [Example 8, 5-[[2-(4-amino-1,2,5-oxadiazol-3-yl)-4-fluoro-benzimidazol-1-yl]methyl]pyridine-2-carbonitrile]	< 100 nM
Cc1nonc1-c1nc2c(F)cccc2n1Cc1cncnc1 [Example 9, 3-[4-fluoro-1-(pyrimidin-5-ylmethyl)benzimidazol-2-yl]-4-methyl-1,2,5-oxadiazole]	< 100 nM
COc1ccc(Cn2c(-c3nonc3N)nc3cccc(F)c32)cn1 [Example 10, 4-[7-fluoro-1-[(6-methoxypyridin-3-yl)methyl]benzimidazol-2-yl]-1,2,5-oxadiazol-3-amine]	< 100 nM
N#Cc1ncc(Cn2c(-c3nonc3N)nc3cccnc32)cn1 [Example 11, 5-[[2-(4-amino-1,2,5-oxadiazol-3-yl)imidazo[4,5-b]pyridin-3-yl]methyl]pyrimidine-2-carbonitrile]	< 200 nM
Nc1nonc1-c1nc2cc(F)cnc2n1Cc1cncnc1 [Example 12, 4-[6-fluoro-3-(pyrimidin-5-ylmethyl)imidazo[4,5-b]pyridin-2-yl]-1,2,5-oxadiazol-3-amine]	< 200 nM
Cc1nonc1-c1nc2cccnc2n1Cc1cncnc1 [Example 13, 3-methyl-4-[3-(pyrimidin-5-ylmethyl)imidazo[4,5-b]pyridin-2-yl]-1,2,5-oxadiazole]	< 200 nM
COc1ccc(Cn2c(-c3nonc3N)nc3cccnc32)cn1 [Example 14, 4-[3-[(6-methoxypyridin-3-yl)methyl]imidazo[4,5-b]pyridin-2-yl]-1,2,5-oxadiazol-3-amine]	< 200 nM
COc1ccc(Cn2c(-c3nonc3C)nc3cccnc32)cn1 [Example 16, 3-[3-[(6-methoxypyridin-3-yl)methyl]imidazo[4,5-b]pyridin-2-yl]-4-methyl-1,2,5-oxadiazole]	< 200 nM

Other lines, results leading:

IC50	SMILES
< 200 nM	Nc1nonc1-c1nc2c(F)c(F)ccc2n1Cc1cccnn1 (single isomer, unassigned) [Example 163, 4-(4,5-difluoro-1-(pyridazin-3-ylmethyl)-benzimidazol-2-yl)-1,2,5-oxadiazol-3-amine]
< 100 nM	Nc1nonc1-c1nc2cccc(F)c2n1Cc1ccc(C(F)(F)F)nn1 (single isomer, unassigned) [Example 166, 4-(7-fluoro-1-((6-(trifluoromethyl)pyridazin-3-yl)methyl)-benzimidazol-2-yl)-1,2,5-oxadiazol-3-amine]
< 1000 nM	Nc1nonc1-c1nc2c(F)cccc2n1Cc1ccc(C(F)(F)F)nn1 (single isomer, unassigned) [Example 167, 4-(4-fluoro-1-((6-(trifluoromethyl)pyridazin-3-yl)methyl)-benzimidazol-2-yl)-1,2,5-oxadiazol-3-amine]
< 50 nM	Cc1ccc(Cn2c(-c3nonc3N)nc3cccc(F)c32)nn1 (single isomer, unassigned) [Example 168, 4-(7-fluoro-1-((6-methylpyridazin-3-yl)methyl)-benzimidazol-2-yl)-1,2,5-oxadiazol-3-amine]
< 200 nM	Cc1ccc(Cn2c(-c3nonc3N)nc3c(F)cccc32)nn1 (single isomer, unassigned) [Example 169, 4-(4-fluoro-1-((6-methylpyridazin-3-yl)methyl)-benzimidazol-2-yl)-1,2,5-oxadiazol-3-amine]
< 100 nM	Cc1nonc1-c1nc2ccc(F)c(F)c2n1Cc1cccnn1 (single isomer, unassigned) [Example 170, 3-(6,7-difluoro-1-(pyridazin-3-ylmethyl)-benzimidazol-2-yl)-4-methyl-1,2,5-oxadiazole]
< 500 nM	Cc1nonc1-c1nc2c(F)c(F)ccc2n1Cc1cccnn1 (single isomer, unassigned) [Example 171, 3-(4,5-difluoro-1-(pyridazin-3-ylmethyl)-benzimidazol-2-yl)-4-methyl-1,2,5-oxadiazole]
< 200 nM	Nc1nonc1-c1nc2cccc(F)c2n1Cc1ccc(C(F)F)nn1 (single isomer, unassigned) [Example 172, 4-(1-((6-(difluoromethyl)pyridazin-3-yl)methyl)-7-fluoro-benzimidazol-2-yl)-1,2,5-oxadiazol-3-amine]
< 500 nM	Nc1nonc1-c1nc2c(F)cccc2n1Cc1ccc(C(F)F)nn1 (single isomer, unassigned) [Example 173, 4-(1-((6-(difluoromethyl)pyridazin-3-yl)methyl)-4-fluoro-benzimidazol-2-yl)-1,2,5-oxadiazol-3-amine]
< 100 nM	N#Cc1ccc(Cn2c(-c3nonc3N)nc3cccc(F)c32)nn1 (single isomer, unassigned) [Example 174, 6-((2-(4-amino-1,2,5-oxadiazol-3-yl)-7-fluoro-benzimidazol-1-yl)methyl)pyridazine-3-carbonitrile]
< 200 nM	N#Cc1ccc(Cn2c(-c3nonc3N)nc3c(F)cccc32)nn1 (single isomer, unassigned) [Example 175, 6-((2-(4-amino-1,2,5-oxadiazol-3-yl)-4-fluoro-benzimidazol-1-yl)methyl)pyridazine-3-carbonitrile]
< 100 nM	COc1cc(Cn2c(-c3nonc3N)nc3cccc(F)c32)ccn1 (single isomer, unassigned) [Example 183, 4-(7-fluoro-1-((2-methoxypyridin-4-yl)methyl)-benzimidazol-2-yl)-1,2,5-oxadiazol-3-amine]
< 100 nM	COc1cc(Cn2c(-c3nonc3N)nc3c(F)cccc32)ccn1 (single isomer, unassigned) [Example 184, 4-(4-fluoro-1-((2-methoxypyridin-4-yl)methyl)-benzimidazol-2-yl)-1,2,5-oxadiazol-3-amine]
< 500 nM	Nc1nonc1-c1nc2cncc(F)c2n1Cc1cccnn1 (single isomer, unassigned) [Example 187, 4-(7-fluoro-1-(pyridazin-3-ylmethyl)-1H-imidazo[4,5-c]pyridin-2-yl)-1,2,5-oxadiazol-3-amine]
< 5000 nM	Nc1nonc1-c1nc2c(F)cncc2n1Cc1cccnn1 (single isomer, unassigned) [Example 188, 4-(7-fluoro-3-(pyridazin-3-ylmethyl)-3H-imidazo[4,5-c]pyridin-2-yl)-1,2,5-oxadiazol-3-amine]
